Like-named read-outs stand apart in the source and are kept apart here.
Assays:
HTT mRNA = assay: Splicing RT-qPCR assay, HTT canonical (CJ) and alternative (AJ) junction mRNA; assay type: cell-based, human; settings: Homo sapiens, A673 or K562 cells, 24 hours compound treatment; for IC50: read-out: HTT CJ (IC50, decrease in canonical junction mRNA); for AC50: read-out: HTT AJ (AC50, increase in alternative junction mRNA)
Method in brief: (§1)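 Read-out is the abundance of canonical-junction versus new alternative-exon-junction mRNA, determined by real-time qPCR after cDNA synthesis and normalized to a housekeeping gene. It is measured in A673 or K562 cells exposed to compounds for 24 h, top dose 10 uM.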

MYB mRNA = assay: Splicing RT-qPCR assay, MYB canonical (CJ) and alternative (AJ) junction mRNA; assay type: cell-based, human; settings: Homo sapiens, A673 or K562 cells, 24 hours compound treatment, RT-qPCR; for AC50: read-out: MYB AJ (AC50, increase in alternative junction mRNA); for IC50: read-out: MYB CJ (IC50, decrease in canonical junction mRNA)
Method in brief: as §1

SMILES | IC50 (HTT mRNA; 24 h) | IC50 (MYB mRNA; 24 h) | AC50 (HTT mRNA) | AC50 (MYB mRNA; 24 h) | IC50 (HTT mRNA) | AC50 (MYB mRNA) | IC50 (MYB mRNA)
CCn1cc2c(N3C[C@H](F)[C@H](NC)C3)ccc(C(=O)Nc3cc(F)c4nc(C)cn4c3)c2n1 [Compound 585, cis-2-ethyl-N-(8-fluoro-2-methylimidazo[1,2-a]pyridin-6-yl)-4-((3S,4R)-3-fluoro-4-(methylamino)pyrrolidin-1-yl)-2H-indazole-7-carboxamide bis(2,2,2-trifluoroacetate)] | > 10000 nM | 100 to 1000 nM | > 10000 nM | 100 to 1000 nM |  |  | 
Cc1cn2cc(NC(=O)c3c(F)cc(N4CC[C@@H](NC5(C#N)CC5)C4)c4cn(C)nc34)cc(F)c2n1 [Compound 587, 4-[(3R)-3-[(1-cyanocyclopropyl)amino]pyrrolidin-1-yl]-6-fluoro-N-{8-fluoro-2-methylimidazo[1,2-a]pyridin-6-yl}-2-methylindazole-7-carboxamide] | 100 to 1000 nM | 100 to 1000 nM | 100 to 1000 nM | 100 to 1000 nM |  |  | 
Cc1cn2cc(NC(=O)c3ccc(N4CCN[C@@H](C(C)C)C4)c4cn(C)nc34)cc(F)c2n1 [Compound 589, N-{8-fluoro-2-methylimidazo[1,2-a]pyridin-6-yl}-4-[(3S)-3-isopropylpiperazin-1-yl]-2-methylindazole-7-carboxamide] | > 10000 nM | 100 to 1000 nM | > 10000 nM | 1000 to 10000 nM |  |  | 
CCn1cc2c(N3CCC(NC4(CO)CC4)CC3)ccc(C(=O)Nc3cc(F)c4nc(C)cn4c3)c2n1 [Compound 590] | 1000 to 10000 nM | 100 to 1000 nM | 1000 to 10000 nM | 100 to 1000 nM |  |  | 
CCn1cc2c(N3C[C@H](C)N[C@@H](C)C3)ccc(C(=O)Nc3cc(F)c4nc(C)cn4c3)c2n1 [Compound 592] | 1000 to 10000 nM | 100 to 1000 nM | > 10000 nM | 100 to 1000 nM |  |  | 
CCn1cc2c(N3C[C@@H](C)N[C@@H](C(C)C)C3)ccc(C(=O)Nc3cc(F)c4nc(C)cn4c3)c2n1 [Compound 600, 2-ethyl-N-{8-fluoro-2-methylimidazo[1,2-a]pyridin-6-yl}-4-[(3S,5R)-3-isopropyl-5-methylpiperazin-1-yl] indazole-7-carboxamide] | > 10000 nM | 1000 to 10000 nM | > 10000 nM | 1000 to 10000 nM |  |  | 
CCn1cc2c(N3CCNCC3)ccc(C(=O)Nc3cn4cc(C)nc4c(Cl)n3)c2n1 [Compound 604, N-{8-chloro-2-methylimidazo[1,2-a]pyrazin-6-yl}-2-ethyl-4-(piperazin-1-yl) indazole-7-carboxamide] | > 10000 nM | 1000 to 10000 nM | > 10000 nM | 1000 to 10000 nM |  |  | 
Cc1cn2cc(NC(=O)c3ccc(N4CCN[C@@H](C5CC5)C4)c4cn(C)nc34)cc(F)c2n1 [Compound 606, 4-[(3S)-3-cyclopropylpiperazin-1-yl]-N-{8-fluoro-2-methylimidazo[1,2-a]pyridin-6-yl}-2-methylindazole-7-carboxamide] | 100 to 1000 nM | 100 to 1000 nM | 1000 to 10000 nM | 100 to 1000 nM |  |  | 
CCn1cc2c(N3C[C@@H](C)N[C@@H](C4CC4)C3)ccc(C(=O)Nc3cc(F)c4nc(C)cn4c3)c2n1 [Compound 616, 4-((3S,5R)-3-cyclopropyl-5-methylpiperazin-1-yl)-2-ethyl-N-(8-fluoro-2-methylimidazo[1,2-a]pyridin-6-yl)-2H-indazole-7-carboxamide] | 100 to 1000 nM | 100 to 1000 nM | 1000 to 10000 nM | 100 to 1000 nM |  |  | 
CCn1cc2c(N3C[C@@H](C4CC4)N[C@@H](C)C3)ccc(C(=O)Nc3cc(F)c4nc(C)cn4c3)c2n1 [Compound 617, 4-((3R,5S)-3-cyclopropyl-5-methylpiperazin-1-yl)-2-ethyl-N-(8-fluoro-2-methylimidazo[1,2-a]pyridin-6-yl)-2H-indazole-7-carboxamide] | 1000 to 10000 nM | 100 to 1000 nM | > 10000 nM | 1000 to 10000 nM |  |  | 
CCn1cc2c(N3CC[C@@H](N(C)C)C3)cc(Cl)c(C(=O)Nc3cc(F)c4nc(C)cn4c3)c2n1 [Compound 619, 6-chloro-4-[(3R)-3-(dimethylamino)pyrrolidin-1-yl]-2-ethyl-N-{8-fluoro-2-methylimidazo[1,2-a]pyridin-6-yl}indazole-7-carboxamide] | > 10000 nM | 100 to 1000 nM | > 10000 nM | 100 to 1000 nM |  |  | 
Cc1cn2cc(NC(=O)c3ccc(N4CC[C@@H](N5C[C@@H](C)N[C@@H](C)C5)C4)c4cn(C)nc34)cc(F)c2n1 [Compound 621, 4-[(3R)-3-[(3R,5S)-3,5-dimethylpiperazin-1-yl]pyrrolidin-1-yl]-N-{8-fluoro-2-methylimidazo[1,2-a]pyridin-6-yl}-2-methylindazole-7-carboxamide] | > 10000 nM | 1000 to 10000 nM | > 10000 nM | 100 to 1000 nM |  |  | 
Cc1cn2cc(NC(=O)c3ccc(N4CCC(N5C6CNCC65)C4)c4cn(C)nc34)cc(F)c2n1 (centres unmarked) [Compound 622, 4-(3-{3,6-diazabicyclo[3.1.0]hexan-6-yl}pyrrolidin-1-yl)-N-{8-fluoro-2-methylimidazo[1,2-a]pyridin-6-yl}-2-methylindazole-7-carboxamide] |  |  | > 10000 nM |  | > 10000 nM | > 10000 nM | 1000 to 10000 nM
CCn1cc2c(N3CCC(NC4CC4)CC3)cc(Cl)c(C(=O)Nc3cc(F)c4nc(C)cn4c3)c2n1 [Compound 627] | 1000 to 10000 nM | 100 to 1000 nM | 1000 to 10000 nM | 100 to 1000 nM |  |  | 
Cc1cn2cc(NC(=O)c3ccc(N4CCC(N5C6COCC65)C4)c4cn(C)nc34)cc(F)c2n1 (centres unmarked) [Compound 629] |  |  | 1000 to 10000 nM |  | 1000 to 10000 nM | 1000 to 10000 nM | 1000 to 10000 nM

Further lines, with some results ahead:

IC50 (HTT mRNA; 24 h) | IC50 (MYB mRNA; 24 h) | SMILES | AC50 (HTT mRNA) | AC50 (MYB mRNA; 24 h) | IC50 (HTT mRNA) | AC50 (MYB mRNA) | IC50 (MYB mRNA)
> 10000 nM | 100 to 1000 nM | Cc1cn2cc(NC(=O)c3ccc(N4CC[C@@H](NCc5ncccn5)C4)c4cn(C)nc34)cc(F)c2n1 [Compound 594, N-{8-fluoro-2-methylimidazo[1,2-a]pyridin-6-yl}-2-methyl-4-[(3R)-3-[(pyrimidin-2-ylmethyl)amino]pyrrolidin-1-yl]indazole-7-carboxamide] | > 10000 nM | 1000 to 10000 nM |  |  | 
> 10000 nM | 1000 to 10000 nM | Cc1cn2cc(NC(=O)c3ccc(N4CC[C@@H](NC5(C#N)CC5)C4)c4cn(C)nc34)cc(F)c2n1 [Compound 596, 4-[(3R)-3-[(1-cyanocyclopropyl)amino]pyrrolidin-1-yl]-N-{8-fluoro-2-methylimidazo[1,2-a]pyridin-6-yl}-2-methylindazole-7-carboxamide] | > 10000 nM | 1000 to 10000 nM |  |  | 
1000 to 10000 nM | < 100 nM | Cc1cn2cc(NC(=O)c3ccc(N4CC[C@@H](NC5(C)CC5)C4)c4cn(C)nc34)cc(F)c2n1 [Compound 598] | 1000 to 10000 nM | 100 to 1000 nM |  |  | 
1000 to 10000 nM | < 100 nM | Cc1cn2cc(NC(=O)c3ccc(N4CC[C@@H](NC5CC(O)C5)C4)c4cn(C)nc34)cc(F)c2n1 (some centres unmarked) [Compound 602] | 1000 to 10000 nM | 100 to 1000 nM |  |  | 
> 10000 nM | 1000 to 10000 nM | Cc1cn2cc(NC(=O)c3ccc(N4CC[C@H](NC5CC(O)C5)C4)c4cn(C)nc34)cc(F)c2n1 (some centres unmarked) [Compound 603] | > 10000 nM | > 10000 nM |  |  | 
1000 to 10000 nM | 100 to 1000 nM | Cc1cn2cc(NC(=O)c3ccc(N4CCN[C@H](C5CC5)C4)c4cn(C)nc34)cc(F)c2n1 [Compound 607, 4-[(3R)-3-cyclopropylpiperazin-1-yl]-N-{8-fluoro-2-methylimidazo[1,2-a]pyridin-6-yl}-2-methylindazole-7-carboxamide] | 1000 to 10000 nM | 100 to 1000 nM |  |  | 
> 10000 nM | 100 to 1000 nM | CN[C@@H]1CCN(c2ccc(C(=O)Nc3cn4cc(C)nc4c(Oc4ccccc4)n3)c3nn(C)cc23)C1 [Compound 610, 2-methyl-N-{2-methyl-8-phenoxyimidazo[1,2-a]pyrazin-6-yl}-4-[(3R)-3-(methylamino)pyrrolidin-1-yl]indazole-7-carboxamide] | 1000 to 10000 nM | 100 to 1000 nM |  |  | 
> 10000 nM | > 10000 nM | CN[C@@H]1CCN(c2ccc(C(=O)Nc3cn4cc(C)nc4c(N4CCOCC4)n3)c3nn(C)cc23)C1 [Compound 612, 2-methyl-N-[2-methyl-8-(morpholin-4-yl)imidazo[1,2-a]pyrazin-6-yl]-4-[(3R)-3-(methylamino)pyrrolidin-1-yl]indazole-7-carboxamide] | > 10000 nM | > 10000 nM |  |  | 
> 10000 nM | 100 to 1000 nM | CN[C@@H]1CCN(c2ccc(C(=O)Nc3cn4cc(C)nc4c(Cl)n3)c3nn(C)cc23)C1 [Compound 614] | > 10000 nM | 100 to 1000 nM |  |  | 
1000 to 10000 nM | 1000 to 10000 nM | CN[C@@H]1CCN(c2ccc(C(=O)Nc3nc(OC)c4nn(C)cc4n3)c3nn(C)cc23)C1 [Compound 624, N-{7-methoxy-2-methylpyrazolo[4,3-d]pyrimidin-5-yl}-2-methyl-4-[(3R)-3-(methylamino)pyrrolidin-1-yl]indazole-7-carboxamide] | 1000 to 10000 nM | 1000 to 10000 nM |  |  | 
1000 to 10000 nM | 100 to 1000 nM | CN[C@@H]1CCN(c2ccc(C(=O)Nc3cn4cc(C)nc4c(OC4CC4)n3)c3nn(C)cc23)C1 [Compound 626, N-{8-cyclopropoxy-2-methylimidazo[1,2-a]pyrazin-6-yl}-2-methyl-4-[(3R)-3-(methylamino)pyrrolidin-1-yl]indazole-7-carboxamide] | 1000 to 10000 nM | 100 to 1000 nM |  |  | 

Reference: patent US20250154169A1, “COMPOUNDS AND METHODS FOR MODULATING SPLICING” (REMIX THERAPEUTICS INC., priority 2021, published 2025)
